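Values below derive from 48-hour exposures of cells grown in 96-well plates, with endpoints linearly interpolated between the two concentrations bracketing the appropriate inhibition level. At the GI50, growth is halved. TGI: concentration producing complete growth inhibition.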
Legend:
Experiment in all cases: NCI-60 cell line screen, 48 h
SF-295 CNS = system: SF-295 CNS
HOP-92 NSCLC = system: HOP-92 NSCLC
U251 CNS = system: U251 CNS
NCI-H460 lung = system: NCI-H460 lung
A498 renal = system: A498 renal
MOLT-4 leukemia = system: MOLT-4 leukemia
NCI/ADR-RES ovarian = system: NCI/ADR-RES ovarian
SK-MEL-5 melanoma = system: SK-MEL-5 melanoma
SN12C renal = system: SN12C renal
HOP-62 NSCLC = system: HOP-62 NSCLC
UACC-62 melanoma = system: UACC-62 melanoma
CCRF-CEM leukemia = system: CCRF-CEM leukemia
RPMI-8226 leukemia = system: RPMI-8226 leukemia
HCC-2998 colon = system: HCC-2998 colon
MALME-3M melanoma = system: MALME-3M melanoma
MCF7 breast = system: MCF7 breast
UO-31 renal = system: UO-31 renal
UACC-257 melanoma = system: UACC-257 melanoma
HS 578T breast = system: HS 578T breast
SNB-75 CNS = system: SNB-75 CNS
SF-268 CNS = system: SF-268 CNS
ACHN renal = system: ACHN renal
SF-539 CNS = system: SF-539 CNS
PC-3 prostate = system: PC-3 prostate
A549 NSCLC = system: A549 NSCLC
LOX IMVI melanoma = system: LOX IMVI melanoma
OVCAR-4 ovarian = system: OVCAR-4 ovarian
SK-MEL-28 melanoma = system: SK-MEL-28 melanoma
HT29 colon = system: HT29 colon
HCT-15 colon = system: HCT-15 colon
MDA-MB-231 breast = system: MDA-MB-231 breast
K-562 leukemia = system: K-562 leukemia
RXF 393 renal = system: RXF 393 renal
EKVX NSCLC = system: EKVX NSCLC
NCI-H522 lung = system: NCI-H522 lung
TK-10 renal = system: TK-10 renal
SNB-19 CNS = system: SNB-19 CNS
OVCAR-8 ovarian = system: OVCAR-8 ovarian
BT-549 breast = system: BT-549 breast
OVCAR-5 ovarian = system: OVCAR-5 ovarian
COLO 205 colon = system: COLO 205 colon
HL-60(TB) leukemia = system: HL-60(TB) leukemia
M14 melanoma = system: M14 melanoma
SR leukemia = system: SR leukemia
DU-145 prostate = system: DU-145 prostate
HCT-116 colon = system: HCT-116 colon
SK-OV-3 ovarian = system: SK-OV-3 ovarian
CAKI-1 renal = system: CAKI-1 renal
MDA-MB-435 = system: MDA-MB-435
NCI-H23 lung = system: NCI-H23 lung
OVCAR-3 ovarian = system: OVCAR-3 ovarian
SK-MEL-2 melanoma = system: SK-MEL-2 melanoma
SW-620 colon = system: SW-620 colon
786-0 renal = system: 786-0 renal
T-47D breast = system: T-47D breast
NCI-H226 lung = system: NCI-H226 lung
KM12 colon = system: KM12 colon
IGROV1 ovarian = system: IGROV1 ovarian

C1CCC(C(CC2CCCCN2)C2CCCCC2)CC1 (stereo unspecified)
GI50 (SF-295 CNS): 1730 nM
TGI (SF-295 CNS): 3.21 µM
GI50 (HOP-92 NSCLC): 990 nM
TGI (HOP-92 NSCLC): 2360 nM
GI50 (U251 CNS): 1590 nM
TGI (U251 CNS): 3.02 µM
GI50 (NCI-H460 lung): 1840 nM
TGI (NCI-H460 lung): 3.62 µM
GI50 (A498 renal): 1360 nM
TGI (A498 renal): 2670 nM
GI50 (MOLT-4 leukemia): 2450 nM
TGI (MOLT-4 leukemia): 4.98 µM
GI50 (NCI/ADR-RES ovarian): 1880 nM
TGI (NCI/ADR-RES ovarian): 3.81 µM
GI50 (SK-MEL-5 melanoma): 1550 nM
TGI (SK-MEL-5 melanoma): 2910 nM
GI50 (SN12C renal): 1510 nM
TGI (SN12C renal): 2970 nM
GI50 (HOP-62 NSCLC): 1350 nM
TGI (HOP-62 NSCLC): 2640 nM
GI50 (UACC-62 melanoma): 1530 nM
TGI (UACC-62 melanoma): 2960 nM
GI50 (CCRF-CEM leukemia): 1970 nM
TGI (CCRF-CEM leukemia): 4.82 µM
GI50 (RPMI-8226 leukemia): 2170 nM
TGI (RPMI-8226 leukemia): 5.56 µM
GI50 (HCC-2998 colon): 1410 nM
TGI (HCC-2998 colon): 2960 nM
GI50 (MALME-3M melanoma): 1920 nM
TGI (MALME-3M melanoma): 3.69 µM
GI50 (MCF7 breast): 1650 nM
TGI (MCF7 breast): 3.14 µM
GI50 (UO-31 renal): 1330 nM
TGI (UO-31 renal): 2650 nM
GI50 (UACC-257 melanoma): 1710 nM
TGI (UACC-257 melanoma): 3.53 µM
GI50 (HS 578T breast): 2150 nM
TGI (HS 578T breast): 5.55 µM
GI50 (SNB-75 CNS): 1770 nM
TGI (SNB-75 CNS): 3.43 µM
GI50 (SF-268 CNS): 1770 nM
TGI (SF-268 CNS): 3.23 µM
GI50 (ACHN renal): 1830 nM
TGI (ACHN renal): 3.32 µM
GI50 (SF-539 CNS): 1820 nM
TGI (SF-539 CNS): 3.39 µM
GI50 (PC-3 prostate): 1500 nM
TGI (PC-3 prostate): 2950 nM
GI50 (A549 NSCLC): 1720 nM
TGI (A549 NSCLC): 3.32 µM
GI50 (LOX IMVI melanoma): 1570 nM
TGI (LOX IMVI melanoma): 3.21 µM
GI50 (OVCAR-4 ovarian): 1650 nM
TGI (OVCAR-4 ovarian): 3.04 µM
GI50 (SK-MEL-28 melanoma): 1880 nM
TGI (SK-MEL-28 melanoma): 3.3 µM
GI50 (HT29 colon): 1550 nM
TGI (HT29 colon): 3.06 µM
GI50 (HCT-15 colon): 1810 nM
TGI (HCT-15 colon): 3.48 µM
GI50 (MDA-MB-231 breast): 1250 nM
TGI (MDA-MB-231 breast): 2600 nM
GI50 (K-562 leukemia): 2450 nM
TGI (K-562 leukemia): 5.11 µM
GI50 (RXF 393 renal): 1420 nM
TGI (RXF 393 renal): 2780 nM
GI50 (EKVX NSCLC): 1620 nM
TGI (EKVX NSCLC): 3.28 µM
GI50 (NCI-H522 lung): 1600 nM
TGI (NCI-H522 lung): 3.16 µM
GI50 (TK-10 renal): 1630 nM
TGI (TK-10 renal): 3.09 µM
GI50 (SNB-19 CNS): 1780 nM
TGI (SNB-19 CNS): 3.51 µM
GI50 (OVCAR-8 ovarian): 1770 nM
TGI (OVCAR-8 ovarian): 3.53 µM
GI50 (BT-549 breast): 1930 nM
TGI (BT-549 breast): 3.51 µM
GI50 (OVCAR-5 ovarian): 1700 nM
TGI (OVCAR-5 ovarian): 3.22 µM
GI50 (COLO 205 colon): 1420 nM
TGI (COLO 205 colon): 2790 nM
GI50 (HL-60(TB) leukemia): 2370 nM
TGI (HL-60(TB) leukemia): 4.38 µM
GI50 (M14 melanoma): 1760 nM
TGI (M14 melanoma): 3.34 µM
GI50 (SR leukemia): 2740 nM
TGI (SR leukemia): 6.67 µM
GI50 (DU-145 prostate): 1800 nM
TGI (DU-145 prostate): 3.21 µM
GI50 (HCT-116 colon): 1680 nM
TGI (HCT-116 colon): 3.14 µM
GI50 (SK-OV-3 ovarian): 1540 nM
TGI (SK-OV-3 ovarian): 2880 nM
GI50 (CAKI-1 renal): 1550 nM
TGI (CAKI-1 renal): 3.06 µM
GI50 (MDA-MB-435): 1590 nM
TGI (MDA-MB-435): 3.07 µM
GI50 (NCI-H23 lung): 1720 nM
TGI (NCI-H23 lung): 3.49 µM
GI50 (OVCAR-3 ovarian): 1820 nM
TGI (OVCAR-3 ovarian): 3.26 µM
GI50 (SK-MEL-2 melanoma): 2030 nM
TGI (SK-MEL-2 melanoma): 3.69 µM
GI50 (SW-620 colon): 1770 nM
TGI (SW-620 colon): 3.4 µM
GI50 (786-0 renal): 1640 nM
TGI (786-0 renal): 3.16 µM
GI50 (T-47D breast): 1440 nM
TGI (T-47D breast): 2940 nM
GI50 (NCI-H226 lung): 1640 nM
TGI (NCI-H226 lung): 3.19 µM
GI50 (KM12 colon): 1870 nM
TGI (KM12 colon): 3.42 µM
GI50 (IGROV1 ovarian): 1870 nM
TGI (IGROV1 ovarian): 3.45 µM
